Test results from PMC10921007 (Cancer Science, 2023).

Target: T1, SHCBP1 (Homo sapiens, UniProt Q8NEM2)
T1 sequence (Q8NEM2 2-672): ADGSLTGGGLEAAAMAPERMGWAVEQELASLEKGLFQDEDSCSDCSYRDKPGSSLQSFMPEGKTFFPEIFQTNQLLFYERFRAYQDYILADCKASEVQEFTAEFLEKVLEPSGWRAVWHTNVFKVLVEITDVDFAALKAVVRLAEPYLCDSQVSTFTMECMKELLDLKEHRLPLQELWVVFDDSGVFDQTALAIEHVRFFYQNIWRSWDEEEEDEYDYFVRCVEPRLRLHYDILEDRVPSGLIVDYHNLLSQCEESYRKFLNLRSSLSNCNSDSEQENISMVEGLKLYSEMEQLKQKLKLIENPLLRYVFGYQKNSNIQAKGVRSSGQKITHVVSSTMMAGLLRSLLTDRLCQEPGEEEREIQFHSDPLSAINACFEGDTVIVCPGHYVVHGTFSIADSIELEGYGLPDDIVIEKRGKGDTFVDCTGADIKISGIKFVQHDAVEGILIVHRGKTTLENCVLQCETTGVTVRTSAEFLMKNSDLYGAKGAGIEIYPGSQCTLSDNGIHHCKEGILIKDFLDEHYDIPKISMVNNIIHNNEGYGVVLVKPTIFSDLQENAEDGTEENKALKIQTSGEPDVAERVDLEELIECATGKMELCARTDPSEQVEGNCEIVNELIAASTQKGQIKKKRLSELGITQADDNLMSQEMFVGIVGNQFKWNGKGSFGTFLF
Experiment: microscale thermophoresis
Type: binding

CN[C@@H](C)C(=O)N[C@H](C(=O)N1CCC[C@H]1C(=O)N[C@H]1c2ccccc2C[C@H]1OCC#CC#CCO[C@@H]1Cc2ccccc2[C@@H]1NC(=O)[C@@H]1CCCN1C(=O)[C@@H](NC(=O)[C@H](C)NC)C1CCCCC1)C1CCCCC1 [AZD5582]
Kd: 1210 nM
